Measured values as given in patent US6875788B2, “Imidazoline compounds” (Les Laboratoires Servier, priority 2002, dated 2005).

Key:
serotonin reuptake sites = molecular target: T1, serotonin reuptake sites (Rattus norvegicus, UniProt P31652); assay: Affinity for serotonin reuptake sites, competition with [3H]-paroxetine on rat frontal cortex membranes; format: binding; settings: 0.25 nM [3H]-paroxetine, 2 hours, 25° C.
T1 construct: The membranes from the rat frontal cortex are prepared and incubated in triplicate; from tissue; host or cells: rat frontal cortex membranes
T1 sequence (P31652 whole entry): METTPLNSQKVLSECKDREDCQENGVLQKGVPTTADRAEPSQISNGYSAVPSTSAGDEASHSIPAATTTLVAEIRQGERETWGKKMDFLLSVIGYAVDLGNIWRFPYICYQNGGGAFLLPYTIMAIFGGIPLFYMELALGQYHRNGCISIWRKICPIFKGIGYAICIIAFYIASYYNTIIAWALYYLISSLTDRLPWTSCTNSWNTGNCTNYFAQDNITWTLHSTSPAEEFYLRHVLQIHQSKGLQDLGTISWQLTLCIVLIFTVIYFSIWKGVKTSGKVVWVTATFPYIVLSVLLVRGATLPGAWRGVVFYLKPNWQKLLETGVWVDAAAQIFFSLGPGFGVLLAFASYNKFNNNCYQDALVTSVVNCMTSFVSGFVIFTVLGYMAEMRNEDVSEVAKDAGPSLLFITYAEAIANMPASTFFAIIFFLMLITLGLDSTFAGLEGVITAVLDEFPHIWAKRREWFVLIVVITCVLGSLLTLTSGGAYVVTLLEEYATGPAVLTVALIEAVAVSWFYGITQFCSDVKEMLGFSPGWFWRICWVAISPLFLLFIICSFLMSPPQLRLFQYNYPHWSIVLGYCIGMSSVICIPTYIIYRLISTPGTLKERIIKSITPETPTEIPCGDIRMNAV
Protocol: The affinity of the compounds of the invention was determined by competition experiments with [^3H]-paroxetine. The membranes from the rat frontal cortex are prepared and incubated in triplicate for 2 hours, at 25° C., with 0.25 nM [^3H]-paroxetine and the cold ligand in a final volume of 0.4 ml. The incubation buffer contains 50 mM TRIS-HCl (pH 7.4), 120 mM NaCl and 5 mM KCl. The non-specific binding is determined using 10 μM citalopram. At the end of incubation, the medium is filtered through filters and washed three times with 5 ml of cooled buffer. The radioactivity retained on the filters is determined by liquid scintillation counting. The binding isotherms are analysed by non-linear regression in order to determine the IC50 values.

Zucker rats = assay: Oral glucose tolerance test (OGTT), hypoglycaemic activity in Zucker fatty fa/fa rats; format: in vivo, rat; settings: 10 mg/kg per os 1 hour before OGTT (glucose 2 g/kg per os)
Protocol: Finally, the hypoglycaemic activity was evaluated in “Zucker” rats. “Zucker fatty” fa/fa rats arose following a spontaneous mutation of the 13M strain (Zucker & Zucker, 1961), and are genetically insulin-resistant and obese.
Their obesity can be observed from the age of four weeks, and is thus accompanied by insulin resistance, hyperinsulinaemia and hyperlipidaemia. […] Homeostasis was evaluated likewise by a glucose tolerance test.
(§1) Oral Glucose Tolerance Test (OGTT)
(§2) Glucose is administered per os (2 g/kg) to conscious rats. Blood samples are collected before and 10, 20, 30, 40, 60, 90 and 120 minutes after the glucose administration.
(§3) The product to be tested is administered per os 1 hour before the OGTT, and the control animals receive solvent (gum arabic).

obese ob/ob mouse = assay: Hypolipaemic activity in the obese ob/ob mouse; format: in vivo; settings: oral route 30 mg/kg/day for 4 days, treated vs. untreated animals
Protocol: The products of the invention were tested in vivo in the obese ob/ob mouse, used as a model of obesity-associated insulin resistance. […] In this model, the compounds of the invention are thus shown also to be powerful hypolipaemics.

non-diabetic Wistar rats = assay: Oral glucose tolerance test (OGTT), hypoglycaemic activity in non-diabetic Wistar rats; format: in vivo, rat; settings: 10 mg/kg per os 1 hour before OGTT (glucose 2 g/kg per os)
STZ Wistar rats = assay: Oral glucose tolerance test (OGTT), hypoglycaemic activity in STZ (streptozotocin) Wistar rats; format: in vivo, rat; settings: 10 mg/kg per os 1 hour before OGTT (glucose 2 g/kg per os)
Protocol: The hypoglycaemic activity of the compounds of the invention was examined in three-month-old male Wistar rats weighing about 250 g. An experimental diabetes is obtained by the iv injection, under ketamine hydrochloride anaesthesia, of a low dose of streptozotocin (35 mg/kg iv) dissolved in a citrate buffer. Such rats are called STZ rats and are characterised by a slight basal hyperglycaemia, a marked intolerance to glucose and a clear change in the secretion of insulin.
Homeostasis was evaluated by a glucose tolerance test, carried out two weeks after injection with streptozotocin.
as §1, §2, §3

c1cc(C(C2=NCCN2)C2CCCCC2)cs1 (stereo not drawn) [Example 3, 2-[Cyclohexyl(3-thienyl)methyl]-4,5-dihydro-1H-imidazole]
IC50 (serotonin reuptake sites): 2000 nM

c1ccc(C(C2=NCCN2)C2CCCCC2)cc1 (stereo not drawn) [2-[cyclohexyl(phenyl)methyl]-4,5-dihydro-1H-imidazole, reference compound]
IC50 (serotonin reuptake sites): 150 nM

CC1CNC(C(c2ccsc2)C2CCCCC2)=N1 (stereo not drawn) [Example 6, 2-[Cyclohexyl(3-thienyl)methyl]-4-methyl-4,5dihydro-1H-imidazole]
reduces glycaemia (Zucker rats): 14%
lowers the triglycerides (obese ob/ob mouse): 32%
reduces glycaemia (non-diabetic Wistar rats): 13%
reduces glycaemia (STZ Wistar rats): 18%
